Experimental data published in ChEMBL document CHEMBL1909046, “DrugMatrix in vitro pharmacology data”.

Test system: not listed separately
Test: DRUGMATRIX: Atrial Natriuretic Factor (ANF) radioligand binding (ligand: [125I] ANF (rat))
Type: cell membranes, Cavia porcellus, Dunkin-Hartley, Adrenal gland, Membrane
Details: Not Active = under 50% inhibition at 10 µM

Row | Structure (SMILES) | IC50 | Ki
1 | CNC(=C[N+](=O)[O-])NCCSCc1csc(CN(C)C)n1 [NIZATIDINE] | Not Active | Not Active
2 | C[C@]12C/C(=C/O)C(=O)C[C@@H]1CC[C@@H]1[C@@H]2CC[C@@]2(C)[C@H]1CC[C@]2(C)O [OXYMETHOLONE] | Not Active | Not Active
3 | CC(C)(CO)C(O)C(=O)NCCCO (stereo not given) [PANTHENOL] | Not Active | Not Active
4 | COc1ccc(Cc2nccc3cc(OC)c(OC)cc23)cc1OC [PAPAVERINE] | Not Active | Not Active
5 | OCCN1CCN(CCCN2c3ccccc3Sc3ccc(Cl)cc32)CC1 [PERPHENAZINE] | Not Active | Not Active
6 | CCCCC1C(=O)N(c2ccccc2)N(c2ccccc2)C1=O [PHENYLBUTAZONE] | Not Active | Not Active
7 | Cc1cccc(Nc2cc(Cl)nc(SCC(=O)O)n2)c1C [PIRINIXIC ACID] | Not Active | Not Active
8 | CC(C)(Sc1cc(C(C)(C)C)c(O)c(C(C)(C)C)c1)Sc1cc(C(C)(C)C)c(O)c(C(C)(C)C)c1 [PROBUCOL] | Not Active | Not Active

Molecular target: T1, Alpha-1A adrenergic receptor (Rattus norvegicus, UniProt P43140)
T1 sequence (P43140 whole entry): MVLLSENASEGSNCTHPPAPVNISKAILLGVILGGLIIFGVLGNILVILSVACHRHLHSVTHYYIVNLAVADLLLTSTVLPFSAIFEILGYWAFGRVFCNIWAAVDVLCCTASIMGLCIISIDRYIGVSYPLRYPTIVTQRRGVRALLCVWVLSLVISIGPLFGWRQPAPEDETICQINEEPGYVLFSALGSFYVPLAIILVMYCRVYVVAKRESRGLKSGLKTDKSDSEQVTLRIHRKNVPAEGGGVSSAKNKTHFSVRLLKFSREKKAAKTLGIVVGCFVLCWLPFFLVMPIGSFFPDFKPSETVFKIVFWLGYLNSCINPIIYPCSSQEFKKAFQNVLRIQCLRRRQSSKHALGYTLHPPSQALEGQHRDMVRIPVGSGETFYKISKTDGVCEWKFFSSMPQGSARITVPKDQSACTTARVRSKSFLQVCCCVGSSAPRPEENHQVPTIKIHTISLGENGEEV
Test: DRUGMATRIX: Alpha-1A adrenergic receptor radioligand binding (ligand: prazosin)
Type: cell membranes, Wistar, Submaxillary gland, Membrane
Details: Not Active = under 50% inhibition at 10 µM

Row | Structure (SMILES) | IC50
9 | CNC(=C[N+](=O)[O-])NCCSCc1csc(CN(C)C)n1 [NIZATIDINE] | Not Active
10 | C[C@]12C/C(=C/O)C(=O)C[C@@H]1CC[C@@H]1[C@@H]2CC[C@@]2(C)[C@H]1CC[C@]2(C)O [OXYMETHOLONE] | Not Active
11 | CC(C)(CO)C(O)C(=O)NCCCO (stereo not given) [PANTHENOL] | Not Active
12 | COc1ccc(Cc2nccc3cc(OC)c(OC)cc23)cc1OC [PAPAVERINE] | Not Active
13 | OCCN1CCN(CCCN2c3ccccc3Sc3ccc(Cl)cc32)CC1 [PERPHENAZINE] | Not Active
14 | CCCCC1C(=O)N(c2ccccc2)N(c2ccccc2)C1=O [PHENYLBUTAZONE] | Not Active
15 | Cc1cccc(Nc2cc(Cl)nc(SCC(=O)O)n2)c1C [PIRINIXIC ACID] | Not Active
16 | CC(C)(Sc1cc(C(C)(C)C)c(O)c(C(C)(C)C)c1)Sc1cc(C(C)(C)C)c(O)c(C(C)(C)C)c1 [PROBUCOL] | Not Active

Molecular target: Adenosine receptor A2a (Homo sapiens, UniProt P29274)
Test: DRUGMATRIX: Adenosine A2A radioligand binding (ligand: […])
Type: cell membranes, HEK293, Membrane
Details: hek293; Not Active = under 50% inhibition at 10 µM

Sequence of Adenosine receptor A2a (P29274 whole entry): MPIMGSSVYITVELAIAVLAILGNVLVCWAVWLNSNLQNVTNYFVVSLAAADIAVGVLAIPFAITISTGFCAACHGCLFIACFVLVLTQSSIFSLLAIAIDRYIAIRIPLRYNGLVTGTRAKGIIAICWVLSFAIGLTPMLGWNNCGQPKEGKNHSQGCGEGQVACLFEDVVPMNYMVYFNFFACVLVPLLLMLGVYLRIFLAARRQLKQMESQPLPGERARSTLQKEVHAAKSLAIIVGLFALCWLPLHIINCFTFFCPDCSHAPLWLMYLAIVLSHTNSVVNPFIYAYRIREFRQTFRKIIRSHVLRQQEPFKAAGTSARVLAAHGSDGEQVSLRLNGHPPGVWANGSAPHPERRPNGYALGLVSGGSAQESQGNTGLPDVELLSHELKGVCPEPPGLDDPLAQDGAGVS

Row | Structure (SMILES) | IC50
17 | CNC(=C[N+](=O)[O-])NCCSCc1csc(CN(C)C)n1 [NIZATIDINE] | Not Active
18 | C[C@]12C/C(=C/O)C(=O)C[C@@H]1CC[C@@H]1[C@@H]2CC[C@@]2(C)[C@H]1CC[C@]2(C)O [OXYMETHOLONE] | Not Active
19 | CC(C)(CO)C(O)C(=O)NCCCO (stereo not given) [PANTHENOL] | Not Active
20 | COc1ccc(Cc2nccc3cc(OC)c(OC)cc23)cc1OC [PAPAVERINE] | Not Active
21 | OCCN1CCN(CCCN2c3ccccc3Sc3ccc(Cl)cc32)CC1 [PERPHENAZINE] | Not Active
22 | CCCCC1C(=O)N(c2ccccc2)N(c2ccccc2)C1=O [PHENYLBUTAZONE] | Not Active
23 | Cc1cccc(Nc2cc(Cl)nc(SCC(=O)O)n2)c1C [PIRINIXIC ACID] | Not Active
24 | CC(C)(Sc1cc(C(C)(C)C)c(O)c(C(C)(C)C)c1)Sc1cc(C(C)(C)C)c(O)c(C(C)(C)C)c1 [PROBUCOL] | Not Active

Molecular target: T2, 3-hydroxy-3-methylglutaryl-coenzyme A reductase (Homo sapiens, UniProt P04035);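 also: enzyme inhibition assay of HMG-CoA reductase using radiolabeled [14C]HMG-CoA as substrate; in other assays of this panel Not Active means under 50% inhibition at 10 µM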
T2 sequence (P04035 whole entry): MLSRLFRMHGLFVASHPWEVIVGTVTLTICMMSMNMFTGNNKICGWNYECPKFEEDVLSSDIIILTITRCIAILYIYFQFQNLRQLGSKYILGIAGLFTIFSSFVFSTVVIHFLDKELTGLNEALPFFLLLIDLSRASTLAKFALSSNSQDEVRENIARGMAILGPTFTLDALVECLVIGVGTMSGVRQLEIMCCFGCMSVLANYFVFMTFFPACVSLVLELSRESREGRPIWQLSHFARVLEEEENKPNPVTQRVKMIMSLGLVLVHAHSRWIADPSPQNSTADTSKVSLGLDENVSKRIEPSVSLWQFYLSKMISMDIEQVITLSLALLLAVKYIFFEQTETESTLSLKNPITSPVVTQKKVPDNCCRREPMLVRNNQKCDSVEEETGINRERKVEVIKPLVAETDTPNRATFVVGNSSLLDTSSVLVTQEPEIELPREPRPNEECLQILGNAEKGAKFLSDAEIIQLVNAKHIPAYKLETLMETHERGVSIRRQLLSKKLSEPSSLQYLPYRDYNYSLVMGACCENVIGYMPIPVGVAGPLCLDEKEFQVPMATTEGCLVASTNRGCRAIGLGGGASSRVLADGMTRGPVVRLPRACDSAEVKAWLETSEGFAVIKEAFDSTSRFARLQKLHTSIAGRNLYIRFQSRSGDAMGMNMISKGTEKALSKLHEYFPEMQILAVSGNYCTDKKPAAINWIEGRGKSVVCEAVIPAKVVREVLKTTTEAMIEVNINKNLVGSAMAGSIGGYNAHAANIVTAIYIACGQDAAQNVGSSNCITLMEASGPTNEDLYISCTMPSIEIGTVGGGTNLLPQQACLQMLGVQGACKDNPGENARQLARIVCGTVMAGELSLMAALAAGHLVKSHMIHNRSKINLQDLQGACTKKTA
Set-up: species or system Escherichia coli
Details: not given

Row | Structure (SMILES) | IC50
25 | CNC(=C[N+](=O)[O-])NCCSCc1csc(CN(C)C)n1 [NIZATIDINE] | Not Active
26 | C[C@]12C/C(=C/O)C(=O)C[C@@H]1CC[C@@H]1[C@@H]2CC[C@@]2(C)[C@H]1CC[C@]2(C)O [OXYMETHOLONE] | Not Active
27 | CC(C)(CO)C(O)C(=O)NCCCO (stereo not given) [PANTHENOL] | Not Active
28 | COc1ccc(Cc2nccc3cc(OC)c(OC)cc23)cc1OC [PAPAVERINE] | Not Active
29 | OCCN1CCN(CCCN2c3ccccc3Sc3ccc(Cl)cc32)CC1 [PERPHENAZINE] | Not Active
30 | CCCCC1C(=O)N(c2ccccc2)N(c2ccccc2)C1=O [PHENYLBUTAZONE] | Not Active
31 | Cc1cccc(Nc2cc(Cl)nc(SCC(=O)O)n2)c1C [PIRINIXIC ACID] | Not Active
32 | CC(C)(Sc1cc(C(C)(C)C)c(O)c(C(C)(C)C)c1)Sc1cc(C(C)(C)C)c(O)c(C(C)(C)C)c1 [PROBUCOL] | Not Active

Test system: not listed separately
Test: DRUGMATRIX: Interleukin IL-1 radioligand binding (ligand: [125I] interleukin 1beta)
Type: cell membranes, Membrane
Details: nih3t3; Not Active = under 50% inhibition at 10 µM

Row | Structure (SMILES) | IC50 | Ki
33 | CNC(=C[N+](=O)[O-])NCCSCc1csc(CN(C)C)n1 [NIZATIDINE] | Not Active | Not Active
34 | C[C@]12C/C(=C/O)C(=O)C[C@@H]1CC[C@@H]1[C@@H]2CC[C@@]2(C)[C@H]1CC[C@]2(C)O [OXYMETHOLONE] | Not Active | Not Active
35 | CC(C)(CO)C(O)C(=O)NCCCO (stereo not given) [PANTHENOL] | Not Active | Not Active
36 | COc1ccc(Cc2nccc3cc(OC)c(OC)cc23)cc1OC [PAPAVERINE] | Not Active | Not Active
37 | OCCN1CCN(CCCN2c3ccccc3Sc3ccc(Cl)cc32)CC1 [PERPHENAZINE] | Not Active | Not Active
38 | CCCCC1C(=O)N(c2ccccc2)N(c2ccccc2)C1=O [PHENYLBUTAZONE] | Not Active | Not Active
39 | Cc1cccc(Nc2cc(Cl)nc(SCC(=O)O)n2)c1C [PIRINIXIC ACID] | Not Active | Not Active
40 | CC(C)(Sc1cc(C(C)(C)C)c(O)c(C(C)(C)C)c1)Sc1cc(C(C)(C)C)c(O)c(C(C)(C)C)c1 [PROBUCOL] | Not Active | Not Active

Test system: not listed separately
Test: DRUGMATRIX: Calcium Channel Type L, Benzothiazepine radioligand binding (ligand: [3H] Diltiazem)
Type: cell membranes, Rattus norvegicus, Wistar, Brain, Membrane
Details: Not Active = under 50% inhibition at 10 µM

Row | Structure (SMILES) | IC50 | Ki
41 | CNC(=C[N+](=O)[O-])NCCSCc1csc(CN(C)C)n1 [NIZATIDINE] | Not Active | Not Active
42 | C[C@]12C/C(=C/O)C(=O)C[C@@H]1CC[C@@H]1[C@@H]2CC[C@@]2(C)[C@H]1CC[C@]2(C)O [OXYMETHOLONE] | Not Active | Not Active
43 | CC(C)(CO)C(O)C(=O)NCCCO (stereo not given) [PANTHENOL] | Not Active | Not Active
44 | COc1ccc(Cc2nccc3cc(OC)c(OC)cc23)cc1OC [PAPAVERINE] | Not Active | Not Active
45 | OCCN1CCN(CCCN2c3ccccc3Sc3ccc(Cl)cc32)CC1 [PERPHENAZINE] | Not Active | Not Active
46 | CCCCC1C(=O)N(c2ccccc2)N(c2ccccc2)C1=O [PHENYLBUTAZONE] | Not Active | Not Active
47 | Cc1cccc(Nc2cc(Cl)nc(SCC(=O)O)n2)c1C [PIRINIXIC ACID] | Not Active | Not Active
48 | CC(C)(Sc1cc(C(C)(C)C)c(O)c(C(C)(C)C)c1)Sc1cc(C(C)(C)C)c(O)c(C(C)(C)C)c1 [PROBUCOL] | Not Active | Not Active

Molecular target: T3, Interstitial collagenase (Homo sapiens, UniProt P03956);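 also: MMP-1 enzyme inhibition assay using a peptide substrate; in other assays of this panel Not Active means under 50% inhibition at 10 µM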
T3 sequence (P03956 whole entry): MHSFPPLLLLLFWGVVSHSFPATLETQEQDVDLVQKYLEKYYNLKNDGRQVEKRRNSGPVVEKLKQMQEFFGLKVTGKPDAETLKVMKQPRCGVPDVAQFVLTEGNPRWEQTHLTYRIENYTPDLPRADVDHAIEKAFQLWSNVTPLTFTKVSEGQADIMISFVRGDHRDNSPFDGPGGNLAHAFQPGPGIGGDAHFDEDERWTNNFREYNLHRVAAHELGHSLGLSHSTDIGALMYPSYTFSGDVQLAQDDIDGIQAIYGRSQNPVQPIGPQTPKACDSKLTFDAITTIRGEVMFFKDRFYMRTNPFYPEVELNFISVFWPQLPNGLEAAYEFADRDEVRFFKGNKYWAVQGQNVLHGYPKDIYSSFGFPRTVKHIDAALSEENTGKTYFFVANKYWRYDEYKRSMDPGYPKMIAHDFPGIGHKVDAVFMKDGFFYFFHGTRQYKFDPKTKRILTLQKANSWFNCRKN
Type: tissue-based, Rheumatoid synovial fibroblasts
Details: not given

Row | Structure (SMILES) | IC50
49 | CNC(=C[N+](=O)[O-])NCCSCc1csc(CN(C)C)n1 [NIZATIDINE] | Not Active
50 | C[C@]12C/C(=C/O)C(=O)C[C@@H]1CC[C@@H]1[C@@H]2CC[C@@]2(C)[C@H]1CC[C@]2(C)O [OXYMETHOLONE] | Not Active
51 | CC(C)(CO)C(O)C(=O)NCCCO (stereo not given) [PANTHENOL] | Not Active
52 | COc1ccc(Cc2nccc3cc(OC)c(OC)cc23)cc1OC [PAPAVERINE] | Not Active
53 | OCCN1CCN(CCCN2c3ccccc3Sc3ccc(Cl)cc32)CC1 [PERPHENAZINE] | Not Active
54 | CCCCC1C(=O)N(c2ccccc2)N(c2ccccc2)C1=O [PHENYLBUTAZONE] | Not Active
55 | Cc1cccc(Nc2cc(Cl)nc(SCC(=O)O)n2)c1C [PIRINIXIC ACID] | Not Active
56 | CC(C)(Sc1cc(C(C)(C)C)c(O)c(C(C)(C)C)c1)Sc1cc(C(C)(C)C)c(O)c(C(C)(C)C)c1 [PROBUCOL] | Not Active
